Results on seven compounds are retold here after ChEMBL document CHEMBL3600283, “Enthalpic Forces Correlate with the Selectivity of Transthyretin-Stabilizing Ligands in Human Plasma” (J Med Chem, 2015).

One may read the Kd as a measure of binding affinity in units of concentration. Higher therefore signals lower affinity. The IC50 is the midpoint of a concentration-inhibition curve. By half-life is commonly meant the time needed for the level to fall by half in the phase considered.

Data set [1] deals with T1, Transthyretin (Homo sapiens, UniProt P02766). Kind of data set: Binding affinity to TTR (unknown origin) by isothermal titration calorimetric analysis. (Isothermal titration calorimetry measures the heat released or taken up as one component is titrated into another.)
Data set [2] addresses T1, Transthyretin. The data set can be described thus: Binding affinity to TTR in human plasma assessed as protein stabilization preincubated for 1 hr followed by urea-mediated denaturation by Western blot analysis. For orientation: Immunoblotting shows a protein as a band on a membrane.
Data set [3] is described as follows: Half life in plasma (unknown origin). It is filed as ADME, cell-free.

Compound `O=C(O)COC(=O)Cc1ccccc1Nc1c(Cl)cccc1Cl` [ACECLOFENAC] returned a Kd at Transthyretin [1] of 1.2 µM. In addition, on Transthyretin [2] (read-out: IC50), the IC50 is 170 µM.
On Transthyretin [1], `O=c1cc(-c2ccc(O)cc2)oc2cc(O)cc(O)c12` [APIGENIN] came in with a Kd of 0.25 µM. For the same compound, the IC50 at Transthyretin [2] was 18 µM.
In the case of `O=C(O)Cc1ccccc1Nc1c(Cl)cccc1Cl` [DICLOFENAC], the affinity on Transthyretin [1], expressed as Kd, was 1 µM. Further, the IC50 on Transthyretin [2] (read-out: IC50) was 140 µM.
For `Cc1ccc(C)c(OCCCC(C)(C)C(=O)O)c1` [GEMFIBROZIL], the affinity at Transthyretin [1], expressed as Kd, was 0.1 µM. Besides, at Transthyretin [2] (read-out: IC50), the IC50 was found to be 180 µM. For the same compound, the half-life in data set [3] was 1.5 h.
The compound `O=c1cc(-c2ccc(O)c(O)c2)oc2cc(O)cc(O)c12` [LUTEOLIN] displayed a Kd on Transthyretin [1] of 0.07 µM. Also, the IC50 on Transthyretin [2] (read-out: IC50) was determined as 7 µM.
On the same counts, the results for `Cc1ccc(Cl)c(Nc2ccccc2C(=O)O)c1Cl` [MECLOFENAMIC ACID] are 0.48 µM and 50 µM.
On the same counts, the results for `Cc1c(Cl)cccc1Nc1ccccc1C(=O)O` [TOLFENAMIC ACID] are 0.15 µM and 40 µM.
